Measurements as given in US4563470A, “N-Substituted α,ωamino and imino-sulfonic acid salts and their application as cationic vectors of high cellular penetration” (Les Laboratories Meram, priority 1982, dated 1986).
Where two headings read alike, the source gives them in different places.

Tests used:
[1] = Solubility; assay type: physicochemical; conditions: for solubility in alcohol / ethanol: alcohol or ethanol
[2] = Acute toxicity LD50 oral vs i.p. and B/P ratio, sodium salts (species not restated); assay type: in vivo; conditions: for selectivity ratio / LD50: in vivo
From the text: While the ratio for the reference salt, sodium chloride, is greater than 205.4/61.2=3.36, it is, for the imino compounds of Examples 1 and 5 7.0/3.0=2.33 and 6.7/4.4=1.52, respectively, and, for the amino compounds of Examples 2 and 6 (while not strictly determined but without doubt greater than 1), respectively greater than 20.1/20.1=1 and greater than […].

[3] = in vivo; conditions: mouse, in vivo; for selectivity ratio: B/P ratio (oral LD50 / i.p. LD50)
Experimental: (§1) The study is carried out with Swiss I.O.P.S. mice, in lots of 20 animals of both sexes.

[4] = system: Swiss I.O.P.S. mice; assay: in vivo; conditions: Swiss I.O.P.S. mouse; for LD50 by gastric tubage (B): oral
Experimental: as §1

[5] = Antagonism of neurotoxic/convulsant activity of kainic acid, wet dog shaking (test of Fariello et al.); assay type: in vivo, rat; conditions: per os
Experimental: (§2) By way of example, the compounds are tested, on one hand by the test of Macallum et al., Can.

[6] = Test of Frances et al. (ED50 rolling, trembling)
[7] = system: insulin; assay: Potentiation of the hypoglycemic activity of insulin (test of Macallum et al.); assay type: in vivo, rabbit; conditions: for potentiation of the hypoglycemic activity of insulin, intravenous / potentiation of the hypoglycemic activity of insulin, oral: intravenous; for potentiation of the hypoglycemic activity of insulin, oral: non-convulsant dose of insulin; for oral activity after the metabolic and neurologic tests: summary of insulin potentiation and kainic acid tests
Experimental: as §2

[8] = system: Sprague-Dawley I.O.P.S. rat; assay: Acute toxicity LD50 oral vs i.p. and B/P ratio, rat; assay type: in vivo
From the text: (§3) It has been determined that this discovery is not appropriate to a particular animal, by making the same observation for the Sprague-Dawley I.O.P.S. rat where the B/P ratio for magnesium chloride is greater than […]. For the respective compounds of Examples 13 and 14, the ratio is reduced in a most significant manner (p<0.001), to 3.3/2.2=1.5 and […].

[9] = kainic acid administered systemically to the rat; Fariello et al. 1980; cited from earlier work
[10] = system: Sprague-Dawley I.O.P.S. rats; assay: Oral magnesium recharge in magnesium-deficient rats; assay type: in vivo, rat (Sprague-Dawley I.O.P.S.); conditions: for onset of correction of erythrocyte magnesium: 40, 20 or 5 mg magnesium/kg/day; for aggression of deficient rats with respect to mice (muricide activity): magnesium-deficient rats (25 ppm Mg); for erythrocyte magnesium level (hypercorrection): third day, deficient animals 40 mg, controls 60 mg
[11] = Therapeutic use in a patient with latent tetany by magnesium deficiency; assay type: in vivo, human
Experimental: was attacked by latent tetany by magnesium deficiency. They were treated for two years by various forms of magnesotherapy: 3 g magnesium lactate per day or three drinkable ampoules of magnesium pyroglutamate (standardised 127 mg Mg^2+ per ampoule) per day, without succeeding in correcting an erythrocyte magnesium level varying from 43 to 46 mg/l. A prescription of 3 gelatine-coated pills of the compound of Example 13 led to a regression of […] (headache, asthenia, cramp) and the increase, to 48 mg/l in the first month and to 53 mg/l in the second month, of the erythrocyte magnesium level. Ultimately, it was nevertheless observed that each interruption in administration of the product was followed, in the subsequent chemical and biological monthly control, by a relapse (comprising the symptomotology and reduction of the erythrocyte magnesium level to about 45 mg/l).

[12] = Acute toxicity LD50 oral vs i.p. and B/P ratio, rat; assay type: in vivo; conditions: in vivo, Sprague-Dawley I.O.P.S. rat
From the text: as §3

[13] = oral, read-out: LD50 by gastric tubage (B)
[14] = ip, LD50 i.p. (P), Swiss I.O.P.S. mouse
[15] = po, LD50 by gastric tubage (B), Swiss I.O.P.S. mouse
[16] = one patient, 3 gelatine-coated pills (750 mg, 32 mg Mg ion daily)
[17] = ip, i.p., read-out: LD50 i.p. (P)

Cc1ncc(CO)c(CNCCS(=O)(=O)[O-])c1O.[Li+]
solubility in acetone [1]: Insoluble
solubility in water [1]: Soluble

Cc1ncc(CO)c(C=NCCCS(=O)(=O)O)c1O [lithium γ-(3-hydroxy-5-hydroxymethyl-2-methyl-4-pyridylmethy] [lithium γ-(3-hydroxy-5-hydroxymethyl-2-methyl-4-pyridylmethyleneimino)propanesulfonate]
solubility in acetone ([1]; acetone): insoluble
solubility in water ([1]; water): soluble

Cc1ncc(CO)c(C=NCCCS(=O)(=O)O)c1O [Example 5, Sodium γ-(3-hydroxy-5-hydroxymethyl-2-methyl-4-pyridylmethyleneimino)propanesulfonate]
solubility in acetone ([1]; acetone): Insoluble
solubility in alcohol / ethanol [1]: Insoluble
solubility in water ([1]; water): Soluble
selectivity ratio [2]: 1.52
LD50 ([2]; ip, read-out: LD50 i.p. (P)): 4400 µmol/kg
LD50 [2, 13]: 6700 µmol/kg

Cc1ncc(CO)c(CNCCS(=O)(=O)[O-])c1O.[Na+] [Example 2, Sodium β-(3-hydroxy-5-hydroxymethyl-2-methyl-4-pyridylmethylamino)ethanesulfonate]
solubility in acetone ([1]; acetone): Insoluble
solubility in methanol [1]: Poorly soluble
solubility in water ([1]; water): Soluble
selectivity ratio [2]: > 1
LD50 ([2]; ip, read-out: LD50 i.p. (P)): 20100 µmol/kg
LD50 [2, 13]: > 20100 µmol/kg

Cc1ncc(CO)c(C=NCCS(=O)(=O)O)c1O [Example 11, Calcium β-(3-hydroxy-5-hydroxymethyl-2-methyl-4-pyridylmethyleneimino)ethanesulfonate]
LD50 [3, 14]: 2600 µmol/kg
LD50 [3, 15]: 7700 µmol/kg
B/P ratio (oral LD50 / i.p. LD50) [4]: 2.96

Cc1ncc(CO)c(CNCCCS(=O)(=O)[O-])c1O.[Li+]
solubility in acetone [1]: insoluble
solubility in water [1]: soluble

Cc1ncc(CO)c(C=NCCS(=O)(=O)O)c1O [Example 1, Sodium β-(3-hydroxy-5-hydroxymethyl-2-methyl-4-pyridylmethyleneimino)ethanesulfonate]
solubility in alcohol / ethanol [1]: Insoluble
selectivity ratio [2]: 2.33
LD50 ([2]; ip, read-out: LD50 i.p. (P)): 3000 µmol/kg
LD50 [2, 13]: 7000 µmol/kg

Cc1ncc(CO)c(CNCCCS(=O)(=O)[O-])c1O.[Na+]
solubility in acetone ([1]; acetone): Insoluble
solubility in water ([1]; water): Soluble
selectivity ratio [2]: > 1.43
LD50 ([2]; ip, read-out: LD50 i.p. (P)): 13000 µmol/kg
LD50 [2, 13]: > 19200 µmol/kg

NCCS(=O)(=O)O [Taurine, 2-aminoethanesulfonic acid]
reduction of the neurotoxic effect of kainic acid (wet dog shaking) [5]: no significant reduction
ED50 ([6]; read-out: ED50 rolling): 4670 µmol/kg
ED50 ([6]; read-out: ED50 trembling): 4340 µmol/kg
potentiation of the hypoglycemic activity of insulin, intravenous [7]: active intravenously
potentiation of the hypoglycemic activity of insulin, oral [7]: not orally active
oral activity after the metabolic and neurologic tests [7]: inactive

Cc1ncc(CO)c(CNCCS(=O)(=O)[O-])c1O.[K+]
solubility in acetone [1]: Insoluble
solubility in water [1]: Soluble
selectivity ratio ([3]; Swiss I.O.P.S. mouse): 1.2
LD50 [3, 14]: 13000 µmol/kg
LD50 [3, 15]: 15700 µmol/kg

Cc1ncc(CO)c(C=NCCS(=O)(=O)O)c1O [Example 3, Potassium β-(3-hydroxy-5-hydroxymethyl-2-methyl-4-pyridylmethyleneimino)ethanesulfonate]
B/P ratio (oral LD50 / i.p. LD50) [4]: 1.79
LD50 by gastric tubage (B) [4]: 7.0 mmol/kg

Cc1ncc(CO)c(C=NCCCS(=O)(=O)O)c1O [Example 7, Potassium γ-(3-hydroxy-5-hydroxymethyl-2-methyl-4-pyridylmethyleneimino)propanesulfonate]
solubility in acetone ([1]; acetone): Insoluble
solubility in water ([1]; water): Soluble
B/P ratio (oral LD50 / i.p. LD50) [4]: 1.75
LD50 by gastric tubage (B) [4]: 7.0 mmol/kg

[Cl-].[Cl-].[Mg+2] [magnesium chloride, reference compound]
B/P ratio (oral LD50 / i.p. LD50) [8]: > 8.99
LD50 by gastric tubage (B) ([8]; oral): greater than 39.3 mmol/kg
B/P ratio (oral LD50 / i.p. LD50) [4]: 2.04
LD50 by gastric tubage (B) [4]: 19.2 mmol/kg

[Cl-].[K+] [potassium chloride, reference compound]
B/P ratio (oral LD50 / i.p. LD50) [4]: > 7.25
LD50 by gastric tubage (B) [4]: greater than 107.3 mmol/kg

vitamin B6
oral activity after the metabolic and neurologic tests [7]: inactive

Cc1ncc(CO)c(C=NCCCS(=O)(=O)O)c1O [Example 12, Calcium γ-(3-hydroxy-5-hydroxymethyl-2-methyl-4-pyridylmethyleneimino)propanesulfonate]
solubility in acetone ([1]; acetone): Insoluble
solubility in methanol [1]: Soluble
solubility in water ([1]; water): Soluble
LD50 [3, 14]: 2400 µmol/kg
LD50 [3, 15]: 8100 µmol/kg
B/P ratio (oral LD50 / i.p. LD50) [4]: 3.3

Cc1ncc(CO)c(C=NCCS(=O)(=O)O)c1O [Example 9, Lithium β-(3-hydroxy-5-hydroxymethyl-2-methyl-4-pyridylmethyleneimino)ethanesulfonate]
solubility in acetone ([1]; acetone): Insoluble
solubility in water ([1]; water): Soluble

NCCCS(=O)(=O)O [homotaurine, 3-aminopropanesulfonic acid]
reduction of the neurotoxic effect of kainic acid (wet dog shaking) [5]: no significant reduction
antagonism of neurotoxic or convulsant activity of kainic acid [9]: antagonises the neurotoxic or convulsant activity of kainic acid
potentiation of the hypoglycemic activity of insulin, intravenous [7]: active intravenously
potentiation of the hypoglycemic activity of insulin, oral [7]: not orally active
oral activity after the metabolic and neurologic tests [7]: inactive

Cc1ncc(CO)c(C=NCCS(=O)(=O)O)c1O [Example 13, Magnesium β-(3-hydroxy-5-hydroxymethyl-2-methyl-4-pyridylmethyleneimino)ethanesulfonate]
onset of hypercorrection of erythrocyte magnesium [10]: third day
onset of correction of erythrocyte magnesium [10]: first day
aggression of deficient rats with respect to mice (muricide activity) [10]: reduced aggression
erythrocyte magnesium level (hypercorrection) [10]: 79.2 mg
activity in controlling magnesium deficiency versus conventional magnesium salts ([11]; 750 mg daily (32 mg Mg ion) vs conventional magnesium salts at doses 10 times larger): more active
symptoms (headache, asthenia, cramp) ([11]; one patient, 3 gelatine-coated pills): regression
erythrocyte magnesium level, first month [11, 16]: 48 mg/L
erythrocyte magnesium level, second month [11, 16]: 53 mg/L
erythrocyte magnesium level after interruption of administration ([11]; one patient, relapse at subsequent monthly control): about 45 mg/l
solubility in methanol [1]: Insoluble
LD50 [12, 17]: 2200 µmol/kg
selectivity ratio [12]: 1.5
LD50 [12, 13]: 3300 µmol/kg
LD50 ([3]; ip): 2800 µmol/kg
LD50 ([3]; po): 3300 µmol/kg
B/P ratio (oral LD50 / i.p. LD50) [4]: 1.17

Cc1ncc(CO)c(CNCCCS(=O)(=O)[O-])c1O.[K+]
solubility in acetone [1]: Insoluble
solubility in water [1]: Soluble
ED50 ([6]; read-out: ED50 rolling): 270 µmol/kg
ED50 ([6]; read-out: ED50 trembling): 270 µmol/kg
activity relative to taurine ([6]; test of Frances et al.): 17 times
selectivity ratio ([3]; Swiss I.O.P.S. mouse): 1.19
LD50 [3, 14]: 14200 µmol/kg
LD50 [3, 15]: 17000 µmol/kg

[Ca+2].[Cl-].[Cl-] [CaCl2, reference compound]
B/P ratio (oral LD50 / i.p. LD50) [4]: > 9.2
LD50 by gastric tubage (B) [4]: greater than 36.5 mmol/kg

[Cl-].[Na+] [sodium chloride, reference compound]
B/P ratio (oral LD50 / i.p. LD50) [2]: > 3.36
LD50 by gastric tubage (B) ([2]; oral): greater than 205.4 mmol/kg

Cc1ncc(CO)c(C=NCCCS(=O)(=O)O)c1O [Example 14, Magnesium γ-(3-hydroxy-5-hydroxymethyl-2-methyl-4-pyridylmethyleneimino)propanesulfonate]
onset of hypercorrection of erythrocyte magnesium [10]: third day
onset of correction of erythrocyte magnesium [10]: first day
aggression of deficient rats with respect to mice (muricide activity) [10]: reduced aggression
erythrocyte magnesium level (hypercorrection) [10]: 75.8 mg
solubility in acetone ([1]; acetone): Insoluble
solubility in methanol [1]: Insoluble
solubility in water ([1]; water): Soluble
LD50 [12, 17]: 2400 µmol/kg
selectivity ratio [12]: 1.66
LD50 [12, 13]: 4200 µmol/kg
LD50 ([3]; ip): 3300 µmol/kg
LD50 ([3]; po): 4100 µmol/kg
B/P ratio (oral LD50 / i.p. LD50) [4]: 1.24
